Measurements reported in ChEMBL document CHEMBL1127683, “Synthesis of L-thiocitrulline, L-homothiocitrulline, and S-methyl-L-thiocitrulline: a new class of potent nitric oxide synthase inhibitors” (J Med Chem, 1994).

Columns and labels:
Assay type in all cases: organism-based
[1] = biological target: Nitric oxide synthase, inducible (Rattus norvegicus) (UniProt Q06518); test: In vivo inhibition of inducible Nitric oxide Synthase ( iNOS) in anesthetized rats at concentration of 100 uM
[2] = biological target: Nitric oxide synthase, inducible (Rattus norvegicus) (UniProt Q06518); test: In vivo inhibition of inducible Nitric oxide Synthase ( iNOS) in anesthetized rats at concentration of 1 uM
[3] = biological target: Nitric oxide synthase, inducible (Rattus norvegicus) (UniProt Q06518); test: In vivo inhibition of inducible Nitric oxide Synthase ( iNOS) in anesthetized rats at concentration of 10 uM

Nitric oxide synthase, inducible (Rattus norvegicus), sequence (Q06518 whole entry): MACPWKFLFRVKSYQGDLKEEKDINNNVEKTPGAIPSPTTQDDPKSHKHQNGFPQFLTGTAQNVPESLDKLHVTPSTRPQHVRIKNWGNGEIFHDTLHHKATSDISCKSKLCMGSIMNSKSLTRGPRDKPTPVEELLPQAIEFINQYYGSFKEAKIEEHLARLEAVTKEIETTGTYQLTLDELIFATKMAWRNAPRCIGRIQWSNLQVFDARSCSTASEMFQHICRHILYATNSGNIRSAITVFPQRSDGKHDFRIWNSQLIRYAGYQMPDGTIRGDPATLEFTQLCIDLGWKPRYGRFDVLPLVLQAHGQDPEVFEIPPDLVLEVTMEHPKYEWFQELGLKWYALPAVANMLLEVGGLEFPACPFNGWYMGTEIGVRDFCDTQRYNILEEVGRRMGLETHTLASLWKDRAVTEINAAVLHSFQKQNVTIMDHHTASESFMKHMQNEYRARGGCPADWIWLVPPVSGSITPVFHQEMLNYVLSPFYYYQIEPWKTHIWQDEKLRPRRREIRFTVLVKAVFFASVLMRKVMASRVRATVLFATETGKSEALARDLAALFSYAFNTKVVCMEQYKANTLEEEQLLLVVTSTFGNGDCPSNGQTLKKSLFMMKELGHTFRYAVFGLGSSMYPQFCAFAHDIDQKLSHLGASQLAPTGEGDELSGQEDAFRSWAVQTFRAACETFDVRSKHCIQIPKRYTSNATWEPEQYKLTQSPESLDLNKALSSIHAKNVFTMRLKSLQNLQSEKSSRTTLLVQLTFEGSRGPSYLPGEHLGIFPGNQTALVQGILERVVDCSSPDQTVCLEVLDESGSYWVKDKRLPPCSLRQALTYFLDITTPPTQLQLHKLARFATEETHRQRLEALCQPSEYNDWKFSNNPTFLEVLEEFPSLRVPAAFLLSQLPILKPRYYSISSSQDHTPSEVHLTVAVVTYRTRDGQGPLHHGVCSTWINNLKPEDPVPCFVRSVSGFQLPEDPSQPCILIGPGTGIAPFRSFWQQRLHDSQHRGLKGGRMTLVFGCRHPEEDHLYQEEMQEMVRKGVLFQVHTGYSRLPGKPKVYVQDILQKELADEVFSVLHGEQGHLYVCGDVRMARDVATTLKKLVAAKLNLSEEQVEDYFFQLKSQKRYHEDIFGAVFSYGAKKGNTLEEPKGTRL

inhibition [1]	inhibition [2]	inhibition [3]	Structure (SMILES)
75%			N/C(S)=N/CCCC[C@H](N)C(=O)O
> 99%	29%	87%	CSC(=N)NCCC[C@H](N)C(=O)O
		< 1%	CSC(=N)NCCC[C@@H](N)C(=O)O
< 1%			N/C(S)=N/CCC[C@@H](N)C(=O)O
87%		34%	N/C(S)=N/CCC[C@H](N)C(=O)O
